Data from patent US11331369B2, “Endoparasitic depsipeptides” (Zoetis Services LLC, priority 2017, dated 2022).

System: microfilariae of Dirofilaria immitis
Assay: Dirofilaria immitis, Microfilaria (DiMF) In vitro Assay
Assay type: cell-based
Settings: 72 h, read-out: DiMF Minimum Effective Dose (MED), approximately 72 hours incubation, microfilariae assessed for survival or paralysis

**Q.** For CC(C)C[C@H]1C(=O)O[C@H](Cc2ccc(CN3CCOc4cccnc43)cc2)C(=O)N(C)[C@@H](CC(C)C)C(=O)O[C@H](C)C(=O)N(C)[C@@H](CC(C)C)C(=O)O[C@H](Cc2ccc(CN3CCOc4cccnc43)cc2)C(=O)N(C)[C@@H](CC(C)C)C(=O)O[C@H](C)C(=O)N1C [Example 9-64, (3S,6R,9S,12R,15S,18R,21S,24R)-6,18-bis[[4-(2,3-dihydropyrido[3,2-b][1,4]oxazin-4-ylmethyl)phenyl]methyl]-3,9,15,21-tetraisobutyl-4,10,12,16,22,24-hexamethyl-1,7,13,19-tetraoxa-4,10,16,22-tetrazacyclotetracosane-2,5,8,11,14,17,20,23-octaone], which minimal effective concentration is on record?
**A.** 0.01 to 0.1 µM

**Q.** For CC(C)C[C@H]1C(=O)O[C@H](C)C(=O)N(C)[C@@H](CC(C)C)C(=O)O[C@H](Cc2ccccc2)C(=O)N(C)[C@@H](CC(C)C)C(=O)O[C@H](C)C(=O)N(C)[C@@H](CC(C)C)C(=O)O[C@@H](Cc2ccc(CN3CCCCC3)cc2)C(=O)N1C [Example 10-2, (3S,6R,9S,12R,15S,18S,21S,24R)-6-benzyl-3,9,15,21-tetraisobutyl-4,10,12,16,22,24-hexamethyl-18-(4-(piperidin-1-ylmethyl)benzyl)-1,7,13,19-tetraoxa-4,10,16,22-tetraazacyclotetracosan-2,5,8,11,14,17,20,23-octaone], which minimal effective concentration is on record?
**A.** 0.01 to 0.1 µM

**Q.** With CC(C)C[C@H]1C(=O)O[C@H](Cc2ccc(CN3CCN(C(=O)OC(C)(C)C)CC3)cc2)C(=O)N(C)[C@@H](CC(C)C)C(=O)O[C@H](C)C(=O)N(C)[C@@H](CC(C)C)C(=O)O[C@H](Cc2ccccc2)C(=O)N(C)[C@@H](CC(C)C)C(=O)O[C@H](C)C(=O)N1C [Example 10-9, tert-butyl 4-(4-(((2R,5S,8R,11S,14R,17S,20R,23S)-14-benzyl-5,11,17,23-tetraisobutyl-4,8,10,16,20,22-hexamethyl-3,6,9,12,15,18,21,24-octaoxo-1,7,13,19-tetraoxa-4,10,16,22-tetraazacyclotetracosan-2-yl)methyl)benzyl)piperazine-1-carboxylate] as the compound, how does the minimal effective concentration read?
**A.** 0.01 to 0.1 µM

**Q.** With CC(C)C[C@H]1C(=O)O[C@H](Cc2ccc(CN3CCN(S(C)(=O)=O)CC3)cc2)C(=O)N(C)[C@@H](CC(C)C)C(=O)O[C@H](C)C(=O)N(C)[C@@H](CC(C)C)C(=O)O[C@H](Cc2ccccc2)C(=O)N(C)[C@@H](CC(C)C)C(=O)O[C@H](C)C(=O)N1C [Example 10-10, (3S,6R,9S,12R,15S,18R,21S,24R)-6-benzyl-3,9,15,21-tetraisobutyl-4,10,12,16,22,24-hexamethyl-18-(4-((4-(methylsulfonyl)piperazin-1-yl)methyl)benzyl)-1,7,13,19-tetraoxa-4,10,16,22-tetraazacyclotetracosan-2,5,8,11,14,17,20,23-octaone] as the compound, how does the minimal effective concentration read?
**A.** 0.01 to 0.1 µM

**Q.** For CC(C)C[C@H]1C(=O)O[C@H](Cc2ccc(Cn3c(=O)ccc4ccccc43)cc2)C(=O)N(C)[C@@H](CC(C)C)C(=O)O[C@H](C)C(=O)N(C)[C@@H](CC(C)C)C(=O)O[C@H](Cc2ccccc2)C(=O)N(C)[C@@H](CC(C)C)C(=O)O[C@H](C)C(=O)N1C [Example 10-12, (3S,6R,9S,12R,15S,18R,21S,24R)-6-benzyl-3,9,15,21-tetraisobutyl-4,10,12,16,22,24-hexamethyl-18-(4-((2-oxoquinolin-1 (2H)-yl)methyl)benzyl)-1,7,13,19-tetraoxa-4,10,16,22-tetraazacyclotetracosan-2,5,8,11,14,17,20,23-octaone], which minimal effective concentration is on record?
**A.** 0.01 to 0.1 µM

**Q.** Which minimal effective concentration does the source give for CC(C)C[C@H]1C(=O)O[C@H](Cc2ccc(Cn3ccc4cccnc43)cc2)C(=O)N(C)[C@@H](CC(C)C)C(=O)O[C@H](C)C(=O)N(C)[C@@H](CC(C)C)C(=O)O[C@H](Cc2ccccc2)C(=O)N(C)[C@@H](CC(C)C)C(=O)O[C@H](C)C(=O)N1C [Example 10-14, (3S,6R,9S,12R,15S,18R,21S,24R)-6-(4-((1H-pyrrolo[2,3-b]pyridin-1-yl)methyl)benzyl)-18-benzyl-3,9,15,21-tetraisobutyl-4,10,12,16,22,24-hexamethyl-1,7,13,19-tetraoxa-4,10,16,22-tetraazacyclotetracosan-2,5,8,11,14,17,20,23-octaone] here?
**A.** 0.01 to 0.1 µM
